Literature values, collected in EP4506356A1, “METHANOL-INDUCIBLE PROMOTER AND USE THEREOF IN PREPARATION OF L-ALANYL-L-GLUTAMINE” (Wuhan Grand Hoyo Co., Ltd., priority 2022, dated 2023).
Converted amounts (≈) assume the structure as drawn. Residues, ends and D or L forms follow the SMILES beside them.

In the case of `C[C@H](N)C(=O)N[C@@H](CCC(N)=O)C(=O)O` [Alanyl-glutamine dipeptide, L-alanyl-L-glutamine] (H-Ala-Gln-OH), the water solubility is listed as 586 mg/mL (≈ 2700 mM).
